# In patent US6087355A, “Cephalosporin antibiotics” (Microcide Pharmaceuticals, Inc., priority 1996, dated 2000):
# Structures can show the parent of a compound that is named as a salt. Where two headings read alike, the source gives them in different places.
# Tests used:
# E. coli ATCC 25992 = assay: In vitro MIC, agar dilution; type: cell-based; details: for MIC: Escherichia coli, ATCC25992, read-out: minimum inhibitory concentration (MIC)
# How it was run: (§1)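 Agar dilution, Mueller-Hinton; drug 128 → ≤0.25 μg/mL two-fold, duplicates. Inoculum ~10^4 cfu/spot (log phase). 35-36 °C, 16-20 h. MIC = lowest conc. with no growth.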
# E. faecalis ATCC 29212 = assay: In vitro MIC, agar dilution; type: cell-based; details: for MIC: Enterococcus faecalis, ATCC29212, read-out: minimum inhibitory concentration (MIC)
# How it was run: as §1
# E. faecalis VanB(Van^R) = assay: In vitro MIC, agar dilution; type: cell-based; details: for MIC: Enterococcus faecalis, read-out: minimum inhibitory concentration (MIC)
# How it was run: as §1
# E. faecium A491(Amp^R) = assay: In vitro MIC, agar dilution; type: cell-based; details: for MIC: Enterococcus faecium, read-out: minimum inhibitory concentration (MIC)
# How it was run: as §1
# E. faecium ATCC 35667 = assay: In vitro MIC, agar dilution; type: cell-based; details: for MIC: Enterococcus faecium, ATCC35667, read-out: minimum inhibitory concentration (MIC)
# How it was run: as §1
# E. faecium VanA(Van^R) = assay: In vitro MIC, agar dilution; type: cell-based; details: for MIC: Enterococcus faecium, read-out: minimum inhibitory concentration (MIC)
# How it was run: as §1
# P. aeruginosa ATCC 27853 = assay: In vitro MIC, agar dilution; type: cell-based; details: for MIC: Pseudomonas aeruginosa, ATCC27853, read-out: minimum inhibitory concentration (MIC)
# How it was run: as §1
# [1] = tested on: S. aureus 76(Meth^R)(lac^+); assay: In vitro MIC, agar dilution; type: cell-based; details: for MIC: Staphylococcus aureus, read-out: minimum inhibitory concentration (MIC)
# How it was run: as §1
# [2] = tested on: S. aureus ATCC 13709(Meth^S); assay: In vitro MIC, agar dilution; type: cell-based; details: for MIC: Staphylococcus aureus, ATCC13709, S. aureus ATCC 13709(Meth^S), read-out: minimum inhibitory concentration (MIC)
# How it was run: as §1
# S. aureus ATCC 29213 = assay: In vitro MIC, agar dilution; type: cell-based; details: for MIC: Staphylococcus aureus, ATCC29213, read-out: minimum inhibitory concentration (MIC)
# How it was run: as §1
# [3] = tested on: S. aureus ATCC 33593(Meth^R); assay: In vitro MIC, agar dilution; type: cell-based; details: for MIC: Staphylococcus aureus, ATCC33593, read-out: minimum inhibitory concentration (MIC)
# How it was run: as §1
# [4] = tested on: S. aureus PC1(Meth^S)(lac^+); assay: In vitro MIC, agar dilution; type: cell-based; details: for MIC: Staphylococcus aureus, read-out: minimum inhibitory concentration (MIC)
# How it was run: as §1
# [5] = tested on: S. aureus Spain #356(Meth^R); assay: In vitro MIC, agar dilution; type: cell-based; details: for MIC: Staphylococcus aureus, read-out: minimum inhibitory concentration (MIC)
# How it was run: as §1
# [6] = tested on: S. haemolyticus 05(Meth^R); assay: In vitro MIC, agar dilution; type: cell-based; details: for MIC: Staphylococcus haemolyticus, read-out: minimum inhibitory concentration (MIC)
# How it was run: as §1
# [7] = tested on: S. aureus Col(Meth^R)(lac^-); assay: In vitro MIC, agar dilution; type: cell-based; details: for MIC: Staphylococcus aureus, read-out: minimum inhibitory concentration (MIC)
# How it was run: (§2)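 Two-fold dilutions (128 to ≤0.25 μg/mL, in duplicate) were poured into Mueller-Hinton agar. Log-phase broth cultures were spot-inoculated at about 10^4 cfu per spot and incubated 35-36°C for 16-20 hours; the MIC was the lowest concentration inhibiting growth. Col is a high-level PBP2a producer; Col 8A is its isogenic PBP2a-lacking partner.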
# [8] = tested on: S. aureus Col8A(Meth^S)(lac^-); assay: In vitro MIC, agar dilution; type: cell-based; details: S. aureus Col8A(Meth^S)(lac^-); for MIC: Staphylococcus aureus, read-out: minimum inhibitory concentration (MIC)
# How it was run: as §2
# [9] = tested on: S. aureus strain ATCC 13709 (methicillin-susceptible); assay: Murine model for lethal bacteremic peritonitis; type: in vivo, female Swiss-Webster mice; parameters: ED50: unit: mg/kg; details: SC, 72 h; for responders at 0.3125 mg/kg / responders at 0.625 mg/kg / responders at 2.5 mg/kg / responders at 5 mg/kg: read-out: Survivors; for responders at 1.25 mg/kg: read-out: Survivors (converted); for ED50: two equal doses, IP challenge
# How it was run: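 Female Swiss-Webster mice were challenged IP with an LD100 inoculum in 7% hog gastric mucin, then given test drug subcutaneously in twofold increments (0.01–512 mg/kg) as two equal doses at challenge and 2 h later, 10 mice per group. Survival was scored at 72 h; PD50 (total mg/kg) was derived by probit.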
# [10] = Staphylococcus aureus, ATCC13709, Dose 0.3125 mg/kg
# [11] = Staphylococcus aureus, ATCC13709, Dose 0.625 mg/kg
# [12] = Staphylococcus aureus, ATCC13709, Dose 1.25 mg/kg
# [13] = Staphylococcus aureus, ATCC13709, Dose 2.5 mg/kg
# [14] = Staphylococcus aureus, ATCC13709
# [15] = Staphylococcus aureus, ATCC13709, read-out: ED50
molecule,measurement,setting,value
"NCCSc1cnccc1SC1=C(C(=O)O)N2C(=O)[C@@H](NC(=O)/C(=N\O)c3nc(N)sc3Cl)[C@H]2SC1 [Cmpd 30, (7R)-7-[(Z)-2-(2-amino-5-chlorothiazol-4-yl)-2-(hydroxyimino)acetamido]-3-(3-aminoethylthiopyrid-4-ylthio)-3-cephem-4-carboxylate, trifluoroacetic acid salt]",MIC,E. coli ATCC 25992,8 µg/mL
same,MIC,E. faecalis ATCC 29212,≤ 0.06 µg/mL
same,MIC,E. faecalis VanB(Van^R),≤ 0.06 µg/mL
same,MIC,E. faecium A491(Amp^R),8 µg/mL
same,MIC,E. faecium ATCC 35667,0.5 µg/mL
same,MIC,E. faecium VanA(Van^R),1 µg/mL
same,MIC,P. aeruginosa ATCC 27853,> 32 µg/mL
same,MIC,[1],2 µg/mL
same,MIC,[2],≤ 0.25 µg/mL
same,MIC,S. aureus ATCC 29213,0.25 µg/mL
same,MIC,[3],1 µg/mL
same,MIC,[4],≤ 0.25 µg/mL
same,MIC,[5],1 µg/mL
same,MIC,[6],1 µg/mL
same,MIC,[7],0.5 µg/mL
same,MIC,[8],0.13 µg/mL
same,responders at 0.3125 mg/kg,[9]; [10],0%
same,responders at 0.625 mg/kg,[9]; [11],20%
same,responders at 1.25 mg/kg,[9]; [12],40%
same,responders at 2.5 mg/kg,[9]; [13],100%
same,responders at 5 mg/kg,[9]; [14],100%
same,ED50,[9]; [15],1.14 mg/kg
"NCCCSCc1cnccc1SC1=C(C(=O)O)N2C(=O)[C@@H](NC(=O)/C(=N\O)c3nc(N)sc3Cl)[C@H]2SC1 [Cmpd 27, (7R)-7-[(Z)-2-(2-amino-5-chlorothiazol-4-yl)-2-(hydroxyimino)acetamido]-3-[3-(3-aminopropyl)thiomethylpyrid-4-ylthio]-3-cephem-4-carboxylate, trifluoroacetic acid salt]",MIC,E. coli ATCC 25992,8 µg/mL
same,MIC,E. faecalis ATCC 29212,≤ 0.06 µg/mL
same,MIC,E. faecalis VanB(Van^R),≤ 0.06 µg/mL
same,MIC,E. faecium A491(Amp^R),4 µg/mL
same,MIC,E. faecium ATCC 35667,0.25 µg/mL
same,MIC,E. faecium VanA(Van^R),0.5 µg/mL
same,MIC,P. aeruginosa ATCC 27853,32 µg/mL
same,MIC,[1],1 µg/mL
same,MIC,[2],0.13 µg/mL
same,MIC,S. aureus ATCC 29213,0.25 µg/mL
same,MIC,[3],1 µg/mL
same,MIC,[4],0.25 µg/mL
same,MIC,[5],1 µg/mL
same,MIC,[6],2 µg/mL
same,MIC,[7],0.5 µg/mL
same,MIC,[8],0.13 µg/mL
same,responders at 0.3125 mg/kg,[9]; [10],0%
same,responders at 0.625 mg/kg,[9]; [11],0%
same,responders at 1.25 mg/kg,[9]; [12],20%
same,responders at 2.5 mg/kg,[9]; [13],60%
same,responders at 5 mg/kg,[9]; [14],70%
same,ED50,[9]; [15],2.64 mg/kg
"CNCCNCCSCc1nnsc1SC1=C(C(=O)O)N2C(=O)[C@@H](NC(=O)/C(=N\OCCF)c3nc(N)sc3Cl)[C@H]2SC1.O=C(O)C(F)(F)F [Cmpd 28, (7R)-7-[(Z)-2-(2-amino-5-chlorothiazol-4-yl)-2-(2-fluoroethoxyimino)acetamido]-3-[(methylaminoethylaminoethylthiomethyl)-1,2,3-thiadiazol-5-ylthio]-3-cephem-4-carboxylate, trifluoroacetic acid salt]",MIC,E. coli ATCC 25992,2 µg/mL
same,MIC,E. faecalis ATCC 29212,0.13 µg/mL
same,MIC,E. faecalis VanB(Van^R),0.25 µg/mL
same,MIC,E. faecium A491(Amp^R),16 µg/mL
same,MIC,E. faecium ATCC 35667,1 µg/mL
same,MIC,E. faecium VanA(Van^R),4 µg/mL
same,MIC,P. aeruginosa ATCC 27853,32 µg/mL
same,MIC,[1],2 µg/mL
same,MIC,[2],0.13 µg/mL
same,MIC,S. aureus ATCC 29213,1 µg/mL
same,MIC,[3],4 µg/mL
same,MIC,[4],0.5 µg/mL
same,MIC,[5],2 µg/mL
same,MIC,[6],4 µg/mL
same,MIC,[7],2 µg/mL
same,MIC,[8],0.25 µg/mL
same,responders at 0.3125 mg/kg,[9]; [10],10%
same,responders at 0.625 mg/kg,[9]; [11],10%
same,responders at 1.25 mg/kg,[9]; [12],40%
same,responders at 2.5 mg/kg,[9]; [13],30%
same,responders at 5 mg/kg,[9]; [14],70%
same,ED50,[9]; [15],3.01 mg/kg
"(7R)-7-[(Z)-2-(aminothiazol-4-yl)-2-(hydroxyimino)acetamido]-3-[(methylaminoethylaminoethylthiomethyl)-1,2,3-thiadiazol-5-ylthio]-3-cephem-4-carboxylate, trifluoroacetic acid salt [Cmpd 11]",minimum inhibitory concentration (MIC),E. coli ATCC 25992,8 µg/mL
same,minimum inhibitory concentration (MIC),E. faecalis ATCC 29212,0.25 µg/mL
same,minimum inhibitory concentration (MIC),E. faecalis VanB(Van^R),0.5 µg/mL
same,minimum inhibitory concentration (MIC),E. faecium A491(Amp^R),> 32 µg/mL
same,minimum inhibitory concentration (MIC),E. faecium ATCC 35667,2 µg/mL
same,minimum inhibitory concentration (MIC),E. faecium VanA(Van^R),4 µg/mL
same,minimum inhibitory concentration (MIC),P. aeruginosa ATCC 27853,> 32 µg/mL
same,minimum inhibitory concentration (MIC),[1],8 µg/mL
same,minimum inhibitory concentration (MIC),[2]; S. aureus ATCC 13709(Meth^S),0.5 µg/mL
same,minimum inhibitory concentration (MIC),S. aureus ATCC 29213,0.5 µg/mL
same,minimum inhibitory concentration (MIC),[3],4 µg/mL
same,minimum inhibitory concentration (MIC),[4],1 µg/mL
same,minimum inhibitory concentration (MIC),[5],8 µg/mL
same,minimum inhibitory concentration (MIC),[6],4 µg/mL
same,minimum inhibitory concentration (MIC),[7],4 µg/mL
same,minimum inhibitory concentration (MIC),[8],1 µg/mL
same,Survivors,[9]; Dose 0.156 mg/kg,1/10
same,Survivors,[9]; Dose 0.3125 mg/kg,1/10
same,Survivors,[9]; Dose 0.625 mg/kg,3/10
same,Survivors,[9]; Dose 1.25 mg/kg,5/10
same,Survivors,[9]; Dose 2.5 mg/kg,6/10
same,ED50,[9],0.96 mg/kg
"Nc1nc(/C(=N/O)C(=O)N[C@@H]2C(=O)N3C(C(=O)O)=C(Sc4ccncc4SCCNC=O)CS[C@H]23)c(Cl)s1 [Cmpd 64, (7R)-7-[(Z)-2-(2-amino-5-chlorothiazol-4-yl)-2-(hydroxyimino)acetamido]-3-(3-(N-formylaminoethylthio)pyrid-4-ylthio)-3-cephem-4-carboxylate, trifluoroacetic acid salt]",MIC,E. coli ATCC 25992,8 µg/mL
same,MIC,E. faecalis ATCC 29212,0.25 µg/mL
same,MIC,E. faecalis VanB(Van^R),0.5 µg/mL
same,MIC,E. faecium A491(Amp^R),16 µg/mL
same,MIC,E. faecium ATCC 35667,1 µg/mL
same,MIC,E. faecium VanA(Van^R),2 µg/mL
same,MIC,P. aeruginosa ATCC 27853,> 32 µg/mL
same,MIC,[1],4 µg/mL
same,MIC,[2],0.25 µg/mL
same,MIC,S. aureus ATCC 29213,0.25 µg/mL
same,MIC,[3],2 µg/mL
same,MIC,[4],0.5 µg/mL
same,MIC,[5],4 µg/mL
same,MIC,[6],4 µg/mL
same,MIC,[7],2 µg/mL
same,MIC,[8],0.25 µg/mL
same,responders at 0.3125 mg/kg,[9]; [10],10%
same,responders at 0.625 mg/kg,[9]; [11],10%
same,responders at 1.25 mg/kg,[9]; [12],40%
same,responders at 2.5 mg/kg,[9]; [13],40%
same,responders at 5 mg/kg,[9]; [14],80%
same,ED50,[9]; [15],2.27 mg/kg
